Here are results for four compounds from article PMC4298654, “In vivo formation of N-acyl-fumonisin B1” (Mycotoxin Research, 2014).

A short description of the series: In vivo formation of NAFB1 and NAHFB1 in rat kidney and liver (HPLC-ESI-MS/MS). As to conditions: 5 days. More on the design: N-acyl-derivative in tissue sample, analysis a / N-acyl-derivative in tissue sample, analysis b / N-acyl-derivative in tissue sample, mean: unit not given here. The text has this: The study protocol was approved by the Institutional Animal Care and Use Committee, Richard B. Russell Agricultural Research Center, Athens, GA. Male Sprague–Dawley rats (Harlan Industries, Indianapolis, IN, USA), 7 weeks of age at receipt, were individually housed in stainless steel, wire mesh cages in an environmentally controlled room having a 12-h light/dark cycle. Food (2019 Global Rodent Diet, Teklad, Madison, WI, USA) and fresh tap water were provided ad libitum. After a 1 week acclimation period, the animals were randomly assigned to five groups (n = 2/group) having mean weights of 215 to 216 g (weight range of all animals, 211 to 220 g). For five consecutive days, they were observed, weighed, and given an intraperitoneal injection (ip) of 0 (vehicle), 0.5, 1.0, or 2.0 mg/kg body weight FB1 (provided by R. Eppley, US FDA), 1.0 mg/kg body weight HFB1 (positive control) (Voss et al. [2009]), or vehicle (0.9 % physiological saline). These doses corresponded to 0.69, 1.38, and 2.77 μmol FB1/kg body weight and 2.47 μmol/kg body weight HFB1 per day. In order to compare the effects of FB1 and HFB1, dosages will be expressed as molar concentrations and, on this basis, the high dose of FB1 is roughly equivalent to that of the positive control dose of HFB1. Dosing solutions were sterile filtered and administered at a volume rate of 10 ml/kg body weight. The animals were fasted overnight prior to administration of the final dose. The rats were euthanized (CO2 inhalation and exsanguination) 60 to 90 min following the final dose administration and examined by necropsy. The kidney and liver specimens were fixed in 10 % neutral buffered formalin, processed, and microscopically evaluated without knowledge of the animal’s identity or treatment group. Three representative liver and kidney specimens (100 mg each) were also collected, immediately frozen, and stored (−80 °C) until processed, at which time the tissues were thawed and homogenized in distilled/deionized water (1 ml water/100 mg tissue). The homogenates were lyophilized before they were shipped by overnight courier for the analysis of fumonisin metabolites and sphingolipids.
Lyophilized liver and kidney tissues (100 mg wet weight equivalents) were processed for the quantification of FB1, HFB1, NAFB1, NAHFB1, and sphingolipids. Preparation of the tissue samples was performed according to a previously published method (Harrer et al. [2013]). For the quantification of FB1 and HFB1, a d6-labeled derivative of FB1 (FB1-d6) was used as the internal standard. Synthetic derivatives with a heptadecanoic fatty acid (C17:0) residue were used as internal standards for the quantification of N-acyl-fumonisins and ceramides (N-C17:0-FB1, N-C17:0-HFB1, and N-C17:0-ceramide). The sphingoid bases and their phosphate derivatives were quantified using synthetic derivatives with a C17-acyl-backbone: sphingosine (C17:1), sphingosine-1-phosphate (C17:1), sphinganine (C17:0), sphinganine-1-phosphate (C17:0) as internal standards. The standards were dissolved in methanol:chloroform (2:1, v/v) and then mixed with the tissue samples. The samples spiked with internal standard were kept at room temperature for 30 min before being processed further. The internal standard-spiked samples were first extracted with ethyl acetate, isopropanol, and water (60:30:10, v/v/v) and a second time using methanol, chloroform, and water (60:30:10, v/v/v). The extracts were combined, the solvents removed by evaporation, and the dried samples stored at−80 °C till analyzed.
For the analysis, the samples were reconstituted in a mixture of water, methanol, and tetrahydrofurane (60:24:16, v/v/v). The NAFB1 and NAHFB1 derivatives having the following fatty acyl chain lengths were quantified by HPLC-MS/MS: C16:0, C18:0, C20:0, C22:0, C24:0, C26:0. Furthermore, we also quantified the unsaturated derivatives C24:1 and C26:1. The results are given as the sum of all N-acyl derivatives of FB1 or HFB1. […]

The mark [1] stands for this setting: Kidney, treatment FB1 1 mg/kg BW ip.
Where [2] appears, read: Kidney, treatment FB1 2 mg/kg BW ip.
Setting [3] is: Kidney, treatment HFB1 1 mg/kg BW ip.
[4] abbreviates: Liver, treatment FB1 0,5 mg/kg BW ip.
The mark [5] stands for this setting: Liver, treatment FB1 1 mg/kg BW ip.
Where [6] appears, read: Liver, treatment FB1 2 mg/kg BW ip.
The mark [7] stands for this setting: Liver, treatment HFB1 1 mg/kg BW ip.
The mark [8] stands for this setting: Kidney, treatment FB1 0,5 mg/kg BW ip.

On to `CCCCCCCCCCCCCCCCCCCCCCCC(=O)N[C@@H](C)[C@@H](O)C[C@H](O)CCCC[C@@H](O)C[C@H](C)C[C@H](O)[C@H](O)[C@H](C)CCCC` [HFB1C24:0], for which the “N-acyl-derivative in tissue sample, analysis a” value (“N-acyl-derivative … analysis a” below) is 0,0 under setting [1]; 0,0 under setting [2]; 3,0 under setting [3]; 0,0 under setting [4]; 0,0 under setting [5]; 0,0 under setting [6]. For the same compound, the “N-acyl-derivative … analysis a” value under setting [7] was 25,0. Moreover, the “N-acyl-derivative in tissue sample, analysis b” value (“N-acyl-derivative … analysis b” for short) is 0,0 under setting [1]; 0,0 under setting [2]; 2,7 under setting [3]; 0,0 under setting [4]; 0,0 under setting [5]; 0,0 under setting [6]. Further, the “N-acyl-derivative … analysis b” value under setting [7] is 23,5. For the same compound, the “N-acyl-derivative in tissue sample, mean” value runs as follows: under setting [1], 0,0; under setting [2], 0,0; under setting [3], 2,9; under setting [4], 0,0; under setting [5], 0,0; under setting [6], 0,0. Besides, the “N-acyl-derivative in tissue sample, mean” value under setting [7] is 24,2.
As to `CCCCCCCCCCCCCCCCCCCCCC(=O)N[C@@H](C)[C@@H](O)C[C@H](O)CCCC[C@@H](O)C[C@H](C)C[C@H](O)[C@H](O)[C@H](C)CCCC` [HFB1C22:0], the “N-acyl-derivative … analysis a” value runs as follows: under setting [8], 0,0; under setting [1], 0,0; under setting [2], 0,0; under setting [3], 1,5; under setting [4], 0,0; under setting [5], 0,0. For the same compound, the “N-acyl-derivative … analysis a” value reads like this: under setting [6], 0,0; under setting [7], 61,0. Moreover, the “N-acyl-derivative … analysis b” value reads like this: under setting [8], 0,0; under setting [1], 0,0; under setting [2], 0,0; under setting [3], 4,3; under setting [4], 0,0; under setting [5], 0,0. In addition, the “N-acyl-derivative … analysis b” value was 0,0 under setting [6] and 45,8 under setting [7]. Moreover, the “N-acyl-derivative in tissue sample, mean” value by setting is: under setting [8], 0,0; under setting [1], 0,0; under setting [2], 0,0; under setting [3], 2,9; under setting [4], 0,0; under setting [5], 0,0. Besides, the “N-acyl-derivative in tissue sample, mean” value is, setting by setting: under setting [6], 0,0; under setting [7], 53,4.
As to `CCCCCCCCCCCCCCCCCCCC(=O)NC(C)C(O)CC(O)CCCCC(O)CC(C)CC(OC(=O)CC(CC(=O)O)C(=O)O)C(OC(=O)CC(CC(=O)O)C(=O)O)C(C)CCCC` (stereo not drawn) [FB1C20:0], the “N-acyl-derivative … analysis a” value is 0,2 under setting [8]; 0,2 under setting [1]; 0,0 under setting [2]; 0,0 under setting [3]; 0,0 under setting [4]; 0,0 under setting [5]. Also, the “N-acyl-derivative … analysis a” value was 0,0 under setting [6] and 0,0 under setting [7]. For the same compound, the “N-acyl-derivative … analysis b” value under setting [8] is reported as 0,5; the “N-acyl-derivative … analysis b” value under setting [1] is reported as 0,0; the “N-acyl-derivative … analysis b” value under setting [2] is recorded as 0,6; the “N-acyl-derivative … analysis b” value under setting [3] is recorded as 0,0; the “N-acyl-derivative … analysis b” value under setting [4] is 0,0; the “N-acyl-derivative … analysis b” value under setting [5] is reported as 0,0. Besides, the “N-acyl-derivative … analysis b” value is, setting by setting: under setting [6], 0,0; under setting [7], 0,0. The “N-acyl-derivative in tissue sample, mean” value by setting is: under setting [8], 0,4; under setting [1], 0,1; under setting [2], 0,3; under setting [3], 0,0; under setting [4], 0,0; under setting [5], 0,0. In addition, the “N-acyl-derivative in tissue sample, mean” value was 0,0 under setting [6] and 0,0 under setting [7].
With `CCCCCCCCCCCCCCCCCCCC(=O)N[C@@H](C)[C@@H](O)C[C@H](O)CCCC[C@@H](O)C[C@H](C)C[C@H](O)[C@H](O)[C@H](C)CCCC` [HFB1C20:0], the “N-acyl-derivative … analysis a” value was 0,0 under setting [8]; 0,0 under setting [1]; 0,0 under setting [2]; 3,1 under setting [3]; 0,0 under setting [4]; 0,2 under setting [5]. The “N-acyl-derivative … analysis a” value by setting is: under setting [6], 0,0; under setting [7], 8,9. Also, the “N-acyl-derivative … analysis b” value under setting [8] is 0,0; the “N-acyl-derivative … analysis b” value under setting [1] is given as 0,1; the “N-acyl-derivative … analysis b” value under setting [2] is listed as 0,0; the “N-acyl-derivative … analysis b” value under setting [3] was 0,6; the “N-acyl-derivative … analysis b” value under setting [4] is on record as 0,2; the “N-acyl-derivative … analysis b” value under setting [5] is 0,1. Moreover, the “N-acyl-derivative … analysis b” value is reported as 0,0 under setting [6] and 13,1 under setting [7]. Further, the “N-acyl-derivative in tissue sample, mean” value runs as follows: under setting [8], 0,0; under setting [1], 0,1; under setting [2], 0,0; under setting [3], 1,8; under setting [4], 0,1; under setting [5], 0,2. The “N-acyl-derivative in tissue sample, mean” value is, setting by setting: under setting [6], 0,0; under setting [7], 11,0.
